In US11648258B2, “Method and compounds for inhibiting the MCM complex and their application in cancer treatment” (priority 2012, dated 2023):

Tests used:
[1] = system: L-02 cells (normal human liver cells); assay: in vitro; settings: L-02, 48 hrs
Procedure: For testing the anti-proliferation activity of the compounds in human cell lines and calculation of IC50, cancer cells including HepG2, HeLa and Hep3B (4×10^5 cells/well) and normal L-02 cells (5×10^5 cells/well) were respectively seeded in 96-well plates in 100 μl of culture medium and incubated for about 12 hrs at 37° C. The cells were treated with two-fold serial dilutions of the drugs for 48 hrs. Medium was removed and 100 μl of culture medium containing 1 μM WST-1 (water soluble tetrazolium-1) were added to each well. The cells were incubated for 2 hrs, and absorbance at 405 nm (reference at 630 nm) was then measured. To construct the standard curve of the relationship between cell number and absorbance at OD405, serial dilutions of cells with known cell numbers were seeded and incubated for six hrs before being measured by the WST-1 assay. The cell viability was expressed as the ratio of the number of live cells treated with a candidate compound versus that of the DMSO-treated cells.
A pair of human cell lines, L-02 (normal liver cells) and HepG2 (a liver cancer cell line) was treated with 17beta-Deacetyltanghinin for 48 hrs. […] In FIG. 2B-H, quantification of viable cell numbers was carried out using WST-1 (Water-soluble tetrazolium-1) assay.
To further test 17beta-Deacetyltanghinin and to determine the IC50 values, besides L-02 and HepG2, Hep3B (another liver cancer cell line which is p53-negative), HeLa (cervical cancer cell line), HK1 and C666-1 (nasopharyngeal carcinoma) cells and a hTert-immortalized normal nasopharyngeal cell line (NP460) were treated by 17beta-Deacetyltanghinin for 48 hrs, and the relative cell vabilities were determined by WST-1 assay (FIG. 2B, C).

[2] = molecular target: T1, hMcm2-hMcm6 interaction (MCM complex) (Homo sapiens, UniProt P49736+Q14566); assay: Co-immunoprecipitation of MCM subunits in HeLa cell extracts; format: cell-based; settings: asynchronous HeLa cells, whole cell extracts
T1 construct: endogenous in cells; host or cells: HeLa
T1 sequence (P49736 2-904 limits assumed): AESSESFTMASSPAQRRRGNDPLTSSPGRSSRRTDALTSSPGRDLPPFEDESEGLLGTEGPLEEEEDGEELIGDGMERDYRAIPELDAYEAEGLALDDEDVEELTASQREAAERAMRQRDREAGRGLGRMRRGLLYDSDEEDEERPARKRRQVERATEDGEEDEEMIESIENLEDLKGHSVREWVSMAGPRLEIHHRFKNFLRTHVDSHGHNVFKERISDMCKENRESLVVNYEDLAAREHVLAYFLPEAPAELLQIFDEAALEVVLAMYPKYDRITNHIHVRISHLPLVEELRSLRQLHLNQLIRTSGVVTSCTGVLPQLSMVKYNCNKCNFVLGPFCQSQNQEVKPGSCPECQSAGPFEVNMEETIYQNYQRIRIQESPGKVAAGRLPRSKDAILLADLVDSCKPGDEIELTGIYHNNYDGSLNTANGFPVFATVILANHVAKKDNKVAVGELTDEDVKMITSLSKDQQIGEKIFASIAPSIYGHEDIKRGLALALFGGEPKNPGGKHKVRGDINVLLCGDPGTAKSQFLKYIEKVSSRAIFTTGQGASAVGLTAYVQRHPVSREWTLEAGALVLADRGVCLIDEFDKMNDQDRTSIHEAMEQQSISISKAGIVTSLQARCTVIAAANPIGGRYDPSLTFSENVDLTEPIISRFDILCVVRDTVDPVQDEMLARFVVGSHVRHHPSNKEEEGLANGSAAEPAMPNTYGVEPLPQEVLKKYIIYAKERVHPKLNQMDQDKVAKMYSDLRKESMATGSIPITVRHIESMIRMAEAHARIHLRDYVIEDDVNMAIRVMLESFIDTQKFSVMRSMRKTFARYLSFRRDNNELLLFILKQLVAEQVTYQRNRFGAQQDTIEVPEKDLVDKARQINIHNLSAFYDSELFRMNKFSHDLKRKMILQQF
T1 sequence (Q14566 whole entry): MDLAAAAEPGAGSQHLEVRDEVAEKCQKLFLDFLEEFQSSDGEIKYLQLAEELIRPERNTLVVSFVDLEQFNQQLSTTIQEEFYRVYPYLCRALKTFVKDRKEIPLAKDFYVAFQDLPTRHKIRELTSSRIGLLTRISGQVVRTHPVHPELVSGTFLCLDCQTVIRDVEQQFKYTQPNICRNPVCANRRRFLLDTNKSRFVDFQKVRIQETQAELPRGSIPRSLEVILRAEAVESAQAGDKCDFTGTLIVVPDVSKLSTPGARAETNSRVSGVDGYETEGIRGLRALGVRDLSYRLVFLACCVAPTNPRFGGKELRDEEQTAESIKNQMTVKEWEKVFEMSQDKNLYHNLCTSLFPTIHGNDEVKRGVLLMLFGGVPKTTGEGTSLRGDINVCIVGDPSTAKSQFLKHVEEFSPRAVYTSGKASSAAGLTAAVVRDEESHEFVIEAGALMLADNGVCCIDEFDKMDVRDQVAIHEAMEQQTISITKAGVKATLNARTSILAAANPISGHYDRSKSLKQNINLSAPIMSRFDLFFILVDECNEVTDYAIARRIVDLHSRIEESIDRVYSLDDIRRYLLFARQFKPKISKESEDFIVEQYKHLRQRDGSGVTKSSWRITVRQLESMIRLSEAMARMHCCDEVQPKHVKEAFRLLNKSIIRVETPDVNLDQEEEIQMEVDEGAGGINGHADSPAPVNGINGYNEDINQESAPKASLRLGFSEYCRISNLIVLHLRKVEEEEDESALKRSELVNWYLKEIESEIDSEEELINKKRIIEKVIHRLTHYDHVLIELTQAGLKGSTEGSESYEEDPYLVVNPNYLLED
Procedure: To test if 17beta-Deacetyltanghinin targets hMcm2 and hMcm6 proteins in human cells, possible co-immunoprecipitation (co-IP) of the two proteins was tested in human cell extracts from cells treated with 17beta-Deacetyltanghinin. In FIG. 3, asynchronous HeLa cells were treated with DMSO or 17beta-Deacetyltanghinin (DAT) (FIG. 3A), or with DMSO, 17beta-Neriifolin (NRF) or 17beta-Deacetyltanghinin diol (Diol) (FIG. 3B), and whole cell extracts were prepared and further incubated with the compound before being used for co-IP in the presence of the compound. The immunoprecipitates were then immunoblotted with anti-hMcm 6, anti-hMcm2, anti-hMcm4 and anti-hMcm7 antibodies.

[3] = system: L-02 cells; assay: Flow cytometry (cell cycle) in normal L-02 cells; format: cell-based, human; settings: 24 hrs
Procedure: Both floating and attached cells were collected and washed once with PBS. Cells were fixed in 70% ethanol for 1 hr to overnight at −20° C., washed thoroughly with PBS, and then stained in 50 μg/ml RNase A, 0.1% Triton X-100, 0.1 mM EDTA (pH 7.4), and 50 μg/ml propidium iodide for 30 min at 4° C. Samples were analyzed with the FACSort instrument (Becton Dickinson).
In FIG. 8A, flow cytometry was performed to analyze the DNA contents in HepG2 and L-02 cells treated with 17beta-Deacetyltanghinin at various concentrations for 24 hrs. In FIG. 8B, Hela cells were treated with 17beta-Deacetyltanghinin for 24 hrs and labeled with Annexin V-Cy3 (Arm. Cy3) for 20 min. Mitoxantrone (MTX), a clinical anticancer drug that can induce apoptosis in cancer cells, was used as a positive control.

[4] = In vivo toxicity assessment in nude mice; settings: 5.0 mg/kg intraperitoneal for 20 days
Procedure: A further set of animal experiments was then conducted with a longer period of time, in which fifteen drug injections at 5.0 mg/kg were performed one week after tumor inoculation when the tumor size reached 0.05-0.1 cm^3. In FIG. 10B, drug injections and tumor size measurements were performed on the days represented by the data points, and the photographs in FIG. 10C were taken on day 20.
In FIG. 11, S refers to solvent-treated mice without tumor inoculation; S+T represents solvent-treated mice with tumor inoculation; DAT refers to 17beta-Deacetyltanghinin-treated mice without tumor inoculation; DAT+T represents 17beta-Deacetyltanghinin-treated mice with tumor inoculation; and P+T refers to Paelitaxel-treated mice with tumor inoculation. Three out of the five mice with intermediate tumor size in each group were selected for physiological parameters examination. The tumors (T) and internal organs including liver (L), heart (H) and kidney (K) were dissected from each mouse.
Furthermore, blood from each mouse was also collected for the tests of the ALT (alanine aminotransferase) and LDH (Lactate dehydrogenase) activities. […] The results of both tests were represented as the values of differently treated mice relative to the untreated ones.

[5] = system: HepG2 cells (hepatocellular carcinoma); settings: HepG2, 48 hrs

COC1C(O)[C@H](O[C@H]2CC[C@]3(C)C4CC[C@]5(C)[C@@H](C6=CC(=O)OC6)CC[C@]5(O)[C@@]45O[C@H]5C[C@@H]3C2)OC(C)[C@@H]1O (stereo partly drawn) [17beta-Deacetyltanghinin, 3β-O-(3-O-methyl-6-deoxy-α-L-glucopyranosyl)-7β,8β-epoxy-14β-hydroxy-card-20(22)-enolide]
activity towards normal cells, direct microscopy of cell density and morphology [1]: much lower activity
disruption of hMcm2-hMcm6 interaction (co-IP) [2]: disrupted the interaction between hMcm2 and hMcm6
cell cycle effect in normal cells [3]: mostly arrested in G1 phase
appearance of organs (liver, heart, kidney) [4]: All organs looked normal
body weight loss [4]: no obvious weight loss
organ weights relative to body weights [4]: not significantly changed
blood ALT (printed ATL) or LDH level ([4]; relative to untreated mice): did not induce significant increase
inhibition of proliferation, direct microscopy of cell density and morphology [5]: efficiently inhibit the proliferation
